Changes are numbered by the printed parent chain.
How the values were obtained:
zebrafish Tgds [1] = target: T1, zebrafish Tgds (Danio rerio, UniProt A0AC58JQE1); assay: anion exchange HPLC; type: biochemical; details: PBS pH 7.3, 30 °C
T1 construct: full coding region (347 residues) from ovary cDNA, pET-28a NdeI/XhoI, N-terminal 6xHis tag (cutting not mentioned), E. coli BL21 DE
T1 sequence (A0AC58JQE1 1-347): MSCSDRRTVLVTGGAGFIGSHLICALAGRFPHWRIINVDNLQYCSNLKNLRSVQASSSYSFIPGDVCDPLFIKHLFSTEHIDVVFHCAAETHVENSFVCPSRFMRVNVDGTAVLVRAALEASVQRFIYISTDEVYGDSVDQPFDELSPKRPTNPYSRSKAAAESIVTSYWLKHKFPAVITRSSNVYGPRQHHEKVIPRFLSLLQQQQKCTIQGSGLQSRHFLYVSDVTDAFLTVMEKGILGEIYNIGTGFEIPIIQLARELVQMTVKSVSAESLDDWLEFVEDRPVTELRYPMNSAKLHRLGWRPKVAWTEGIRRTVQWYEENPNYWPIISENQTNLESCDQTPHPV

zebrafish Tgds [2] = target: T1, zebrafish Tgds; assay: cycling assay of NAD+ tightly bound to the purified protein; type: binding; details: co-purified, tightly bound cofactor; protein from calculated extinction coefficient at 280 nm
Excerpt: (§1) cycling assay of NAD+ tightly bound to the purified protein on zebrafish Tgds

zebrafish Tgds [3] = target: T2, zebrafish Tgds (Danio rerio, UniProt A0AC58JQE1, A89S); assay: as above; type: binding; details: co-purified, tightly bound cofactor; protein from calculated extinction coefficient at 280 nm
T2 construct: full coding region (347 residues) from ovary cDNA, pET-28a NdeI/XhoI, N-terminal 6xHis tag (cutting not mentioned), E. coli BL21 DE
T2 sequence (A0AC58JQE1 1-347 A89S): T1 sequence (A0AC58JQE1 1-347) with A89S
Excerpt: as §1

zebrafish Tgds [4] = target: T3, zebrafish Tgds (Danio rerio, UniProt A0AC58JQE1, E79G); assay: as above; type: binding; details: co-purified, tightly bound cofactor; protein from calculated extinction coefficient at 280 nm
T3 construct: full coding region (347 residues) from ovary cDNA, pET-28a NdeI/XhoI, N-terminal 6xHis tag (cutting not mentioned), E. coli BL21 DE
T3 sequence (A0AC58JQE1 1-347 E79G): T1 sequence (A0AC58JQE1 1-347) with E79G
Excerpt: as §1

zebrafish Tgds [5] = target: T4, zebrafish Tgds (Danio rerio, UniProt A0AC58JQE1, Y223H); assay: as above; type: binding; details: co-purified, tightly bound cofactor; protein from calculated extinction coefficient at 280 nm
T4 construct: full coding region (347 residues) from ovary cDNA, pET-28a NdeI/XhoI, N-terminal 6xHis tag (cutting not mentioned), E. coli BL21 DE
T4 sequence (A0AC58JQE1 1-347 Y223H): T1 sequence (A0AC58JQE1 1-347) with Y223H
Excerpt: as §1

NAD^+/protein molar ratio ^d (zebrafish Tgds [2]) [mol/mol]	NAD^+/protein molar ratio ^d (zebrafish Tgds [3]) [mol/mol]	NAD^+/protein molar ratio ^d (zebrafish Tgds [4]) [mol/mol]	NAD^+/protein molar ratio ^d (zebrafish Tgds [5]) [mol/mol]	Structure (SMILES)	anion exchange HPLC (zebrafish Tgds [1])
				Cc1cn([C@H]2C[C@H](O)[C@@H](COP(=O)(O)OP(=O)(O)O[C@H]3O[C@H](CO)[C@@H](O)[C@H](O)[C@H]3O)O2)c(=O)[nH]c1=O [TDP‐D‐glucose]	The enzyme exhibited lower activity with TDP‐D‐glucose
0.55	0.39	0.16	0.04	NC(=O)c1ccc[n+]([C@@H]2O[C@H](COP(=O)(O)OP(=O)(O)OC[C@H]3O[C@@H](n4cnc5c(N)ncnc54)[C@H](O)[C@@H]3O)[C@@H](O)[C@H]2O)c1 [NAD^+]	
